In PMC5917010, “Structural basis for GPR40 allosteric agonism and incretin stimulation” (Nature Communications, 2018):
Values joined by “and” are separate entries in the source; they are usually repeats but may differ in a detail not shown here. Equal entries are not always repeated.

Assays:
[1] = biological target: T1, Mouse GPR120 (Mus musculus, UniProt Q7TMA4); test: Mouse GPR120 b-arrestin; type: cell-based; conditions: Supplementary Table 1
T1 sequence (Q7TMA4 1-361): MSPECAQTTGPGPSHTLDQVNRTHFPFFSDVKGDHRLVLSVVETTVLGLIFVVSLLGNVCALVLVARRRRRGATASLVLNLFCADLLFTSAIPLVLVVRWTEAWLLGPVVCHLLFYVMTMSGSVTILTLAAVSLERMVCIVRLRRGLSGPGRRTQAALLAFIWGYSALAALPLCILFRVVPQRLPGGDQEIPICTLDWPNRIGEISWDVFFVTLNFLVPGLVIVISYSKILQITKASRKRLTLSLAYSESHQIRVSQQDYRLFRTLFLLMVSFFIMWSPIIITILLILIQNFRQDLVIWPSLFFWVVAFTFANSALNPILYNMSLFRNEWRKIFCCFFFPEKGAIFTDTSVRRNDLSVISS

[2] = biological target: T2, human GPR40 (Homo sapiens, UniProt O14842); test: Ca2+ mobilization assay (FLIPR), HEK293 cells stably overexpressing GPR40; type: cell-based; conditions: for Ca2+ mobilization (FLIPR) Top: relative to 500 µM linoleic acid; for agonist type in Ca2+ mobilization assay: relative to 500 µM of the natural ligand, linoleic acid
T2 construct: HEK293 cells stably overexpressing full length human GPR40; expressed in transfected cells
T2 sequence (O14842 whole entry): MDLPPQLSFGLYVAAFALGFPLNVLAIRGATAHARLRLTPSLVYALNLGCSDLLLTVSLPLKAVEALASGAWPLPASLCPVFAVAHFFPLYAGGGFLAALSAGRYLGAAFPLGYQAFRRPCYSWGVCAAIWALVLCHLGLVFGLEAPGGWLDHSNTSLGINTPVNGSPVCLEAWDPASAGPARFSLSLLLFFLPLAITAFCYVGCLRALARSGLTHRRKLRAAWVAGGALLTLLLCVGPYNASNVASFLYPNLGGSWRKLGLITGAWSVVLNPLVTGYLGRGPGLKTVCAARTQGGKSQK
Description: HEK293 cells stably overexpressing full length human GPR40 were plated (50K cells/well) into 96-well microtiter plates using Dulbecco’s Modified Eagle’s Medium (DMEM) supplemented with 10% certified fetal bovine serum (FBS), 20 mM HEPES, pH 7.4, 1 mM Sodium Pyruvate, 100 U/mL Penicillin, 100 µg/mL Streptomycin, and 800 µg/mL Geneticin. The cells were incubated overnight at 37 °C and 5% CO2. Calcium 4 dye (Molecular Devices) diluted in assay buffer was added (100 µL per well) to the cell plates, followed by a 1 h incubation in the dark at 25 °C. Test compounds were serially diluted three-fold in 100% DMSO and immediately diluted in assay buffer. […] Receptor activation was immediately measured as an increase in intracellular calcium using the FLIPR® over 3 min. To determine agonist responses, relative fluorescence units (RFUs) over 60 reads were calculated per well and used to calculate percent stimulation relative to 500 µM of the natural ligand, linoleic acid, response. EC50 values were calculated by plotting test compound concentration vs. percent stimulation using a 4-parameter logistic curve fitting equation.

[3] = biological target: T3, Human GPR120 (Homo sapiens, UniProt Q5NUL3); test: Human GPR120 binding; conditions: Supplementary Table 1
T3 sequence (Q5NUL3 1-361): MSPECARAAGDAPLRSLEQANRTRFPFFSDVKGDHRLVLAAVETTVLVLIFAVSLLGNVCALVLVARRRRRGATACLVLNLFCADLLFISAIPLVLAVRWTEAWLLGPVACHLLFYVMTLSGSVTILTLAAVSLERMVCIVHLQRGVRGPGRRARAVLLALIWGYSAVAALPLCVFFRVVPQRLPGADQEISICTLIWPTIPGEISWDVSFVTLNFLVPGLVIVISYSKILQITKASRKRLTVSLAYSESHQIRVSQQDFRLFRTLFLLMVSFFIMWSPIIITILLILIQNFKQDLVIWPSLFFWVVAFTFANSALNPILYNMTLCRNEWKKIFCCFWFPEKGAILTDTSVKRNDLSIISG

[4] = biological target: T4, human PPARgama (Homo sapiens, UniProt P37231); test: human PPARgamma binding; conditions: Supplementary Table 1
T4 sequence (P37231 1-505): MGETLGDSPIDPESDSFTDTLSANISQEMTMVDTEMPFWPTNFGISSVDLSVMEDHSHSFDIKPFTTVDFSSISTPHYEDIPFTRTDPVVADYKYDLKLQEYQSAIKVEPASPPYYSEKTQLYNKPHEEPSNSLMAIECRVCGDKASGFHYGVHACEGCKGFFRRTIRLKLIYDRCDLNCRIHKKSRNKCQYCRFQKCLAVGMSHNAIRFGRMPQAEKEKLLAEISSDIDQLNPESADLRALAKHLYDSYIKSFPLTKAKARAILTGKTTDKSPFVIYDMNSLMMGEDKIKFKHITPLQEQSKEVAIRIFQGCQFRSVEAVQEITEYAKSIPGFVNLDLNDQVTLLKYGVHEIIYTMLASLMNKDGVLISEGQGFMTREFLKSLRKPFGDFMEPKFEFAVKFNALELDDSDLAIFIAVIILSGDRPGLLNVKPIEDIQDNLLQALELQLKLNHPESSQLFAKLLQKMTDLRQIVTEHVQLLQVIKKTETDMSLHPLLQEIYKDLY

[5] = biological target: Mouse GPR40 (Mus musculus, UniProt Q76JU9); test: Mouse GPR40 b-arrestin; type: cell-based
Sequence of Mouse GPR40 (Q76JU9 whole entry): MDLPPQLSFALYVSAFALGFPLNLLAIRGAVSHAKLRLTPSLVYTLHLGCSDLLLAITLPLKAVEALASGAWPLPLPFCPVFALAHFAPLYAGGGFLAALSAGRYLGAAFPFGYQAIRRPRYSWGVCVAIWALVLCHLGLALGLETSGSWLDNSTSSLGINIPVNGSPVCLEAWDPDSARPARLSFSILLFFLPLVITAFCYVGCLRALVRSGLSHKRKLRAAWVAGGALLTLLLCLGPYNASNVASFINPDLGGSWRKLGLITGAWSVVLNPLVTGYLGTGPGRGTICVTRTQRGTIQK

[6] = biological target: T5, human PPARdelta (Homo sapiens, UniProt Q03181); test: human PPARdelta binding; conditions: Supplementary Table 1
T5 sequence (Q03181 1-441): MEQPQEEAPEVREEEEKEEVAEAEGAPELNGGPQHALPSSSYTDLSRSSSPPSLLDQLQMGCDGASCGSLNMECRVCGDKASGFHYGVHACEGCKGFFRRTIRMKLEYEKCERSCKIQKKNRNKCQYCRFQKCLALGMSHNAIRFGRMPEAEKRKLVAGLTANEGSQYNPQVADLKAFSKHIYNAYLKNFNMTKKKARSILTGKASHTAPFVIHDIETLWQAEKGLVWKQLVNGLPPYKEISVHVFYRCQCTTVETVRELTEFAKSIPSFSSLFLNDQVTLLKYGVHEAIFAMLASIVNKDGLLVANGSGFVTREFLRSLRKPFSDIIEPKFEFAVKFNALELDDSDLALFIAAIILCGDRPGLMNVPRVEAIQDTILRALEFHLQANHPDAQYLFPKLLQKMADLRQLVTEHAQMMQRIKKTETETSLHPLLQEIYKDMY

Compound | EC50 [1] [µM] | EC50 ([2]; GPR40-Gαq signaling, stably transfected cells, no TAK-875) | cooperativity composite factor (Log αβ) ([2]; compound 1 with TAK-875, operational model, slope constrained to 1) | efficacy modulation cooperativity factor (β) ([2]; cooperativity between TAK-875 and compound 1) | average α-factor ([2]; cooperativity between TAK-875 and compound 1, averages from Figs. 1a and 8a) | Ca2+ mobilization (FLIPR) Top [2] [%] | agonist type in Ca2+ mobilization assay [2] | Ki [3] [µM] | Ki [4] [µM] | EC50 [5] [µM] | Emax [5] [%] | IC50 [6] [µM]
COc1ccc(C(=O)N(CC(C)(C)C)c2cccc(C)n2)c(N2CCC(c3cc4ccc([C@@H](CC(=O)O)C5CC5)cc4o3)CC2)c1 [compound 1] | > 50 | 0.072 µM and ~0.072 µM | 1.46 | 14 | 2.1 | 136.3 | full agonist | > 100 | > 10 | 0.0016 | 146 | > 10
Cc1cc(OCCCS(C)(=O)=O)cc(C)c1-c1cccc(COc2ccc3c(c2)OC[C@H]3CC(=O)O)c1 [TAK-875] | > 50 | – | – | – | – | 81.67 | partial agonist | > 100 | > 10 | 0.0086 | – | > 10
